Measurements from patent publication US6653311B1, “5-lipoxygenase inhibitors: (2-azinylamino) quinone derivatives” (Board of Supervisors of Louisiana State University, priority 2002, dated 2003).

How the values were obtained:
[1] = target: COX-1 (Homo sapiens, UniProt P23219); test: In vitro inhibition of COX-1 activity; details: read-out: COX-1 percent inhibition
Text: (§1) Percent inhibition mean values ±SD from at least three individual determinations are shown.

[2] = target: T1, 5-lipoxygenase (5-LO) (Oryctolagus cuniculus, UniProt G1SNX0); test: Radioisotopic assay of 5-LO activity (LTB4 formation from 14C-arachidonic acid) in rabbit peritoneal PMNL stimulated with A-23187; assay type: cell-based; details: for inhibition at 1 µM: rabbit peritoneal neutrophils (PMNL), mean ± s.d. of three experiments in duplicate, read-out: % Inhibition (percent inhibition of LTB4 formation); for in vitro 5-LO activity in words: peritoneal PMNL
T1 construct: Polymorphonuclear leukocytes (PMNLs) were purified from rabbits by glycogen-intraperitoneal elicited intraperitoneal recruitment; endogenous in cells; host or cells: rabbit peritoneal polymorphonuclear leukocytes (PMNL), glycogen-elicited
T1 sequence (G1SNX0 1-674): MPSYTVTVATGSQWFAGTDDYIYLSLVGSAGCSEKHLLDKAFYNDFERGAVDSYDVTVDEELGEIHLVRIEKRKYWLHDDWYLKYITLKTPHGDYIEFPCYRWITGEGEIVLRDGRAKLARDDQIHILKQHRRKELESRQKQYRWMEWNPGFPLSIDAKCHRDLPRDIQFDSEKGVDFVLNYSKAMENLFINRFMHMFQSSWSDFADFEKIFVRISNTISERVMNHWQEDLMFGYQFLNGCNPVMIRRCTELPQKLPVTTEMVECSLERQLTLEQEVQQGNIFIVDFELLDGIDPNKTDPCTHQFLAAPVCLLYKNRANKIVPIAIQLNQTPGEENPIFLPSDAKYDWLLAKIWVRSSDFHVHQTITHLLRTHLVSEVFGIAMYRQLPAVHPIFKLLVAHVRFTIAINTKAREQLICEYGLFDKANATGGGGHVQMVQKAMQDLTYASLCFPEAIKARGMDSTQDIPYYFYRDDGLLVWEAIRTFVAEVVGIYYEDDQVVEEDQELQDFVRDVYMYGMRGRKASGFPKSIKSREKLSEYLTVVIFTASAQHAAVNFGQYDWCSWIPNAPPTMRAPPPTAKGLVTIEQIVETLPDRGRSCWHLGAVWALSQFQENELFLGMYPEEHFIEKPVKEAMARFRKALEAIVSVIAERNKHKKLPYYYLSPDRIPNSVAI
Text: The 5-LO enzyme, which is found primarily in cells of myeloid origin such as polymorphonuclear leukocytes (“PMNL”), eosinophils, and macrophages, catalyzes the first step of the biochemical pathway in which arachadonic acid (“AA”) is,converted into LTA4. […] To test the inhibition of the quinone derivatives on the activity of 5-LO rabbit polymorphonuclear leucocytes (PMNLs) were used.
Polymorphonuclear leukocytes (PMNLs) were purified from rabbits by glycogen-intraperitoneal elicited intraperitoneal recruitment, as descrited in T. Yatabe et al., “Studies on 5-lipoxygenase inhibitors: I. Synthesis and 5-lipoxygenase inhibitory activity of novel hydroxanic acid derivatives,” chem. Pharm. Bull., vol. 46, pp. 966-972 (1998). An intraperitoneal injection of 300 mL of 0.1% (w/v) glycogen in sterile saline was administered 6 h before the rabbits were sacrificed by an intravascular injection of Nembutal. Peritoneal exudates were collected in 5 μM EGTA, and residual red cells were removed by lysis in ammonium chloride. These cell preparations were obtained with greater than 96% purity, as assessed by Wright-Giemsa staining and greater than 95% viability as assessed by Trypan blue exclusion.
PMNL cells in suspension were pre-incubated for 20 min at room temperature with ^14C-labeled arachadonic acid (AA) and diluted to 3000 cells μL^−1. Thereafter, the calcium ionophore A-23187 (1 μg/mL) was added to stimulate LTB4 production, and the cells further incubated for 15 min under stirring at 37° C. After incubation, the aqueous samples were successively shaken with a mixture of chloroform/methanol/formic acid (12:12:1) for 30 sec and then with chloroform for 10 sec. Organic phases containing LTB4, 5-HPETE (5-hydroperoxyeicosatetraenoic acid), diHPETEs (dihydroperoxyeicosatetraenoic acids), and prostaglandins (PGs) were pooled, evaporated to dryness under nitrogen and dissolved into a small amount of chloroform-MeOH (1:1). Separation of the 5-LO metabolites was performed by thin layer chromatography (TLC) on silica gel G plates developed in diethyl ether-hexane-acetic acid (60:40:1, v/v/v).
Bands containing 5-lipoxygenase (5-LO) metabolites were scraped from the TLC plates, and ^14C levels were quantitatively measured by liquid scintillation. 5-LO activity was an obtained from the amount of ^14C-arachidonic acid converted into LTB4 after the prelabeled PMNL cells were stimulated to produce LTB4 by the calcium ionophore as described above. IC50 was calculated as the concentration of the 5-LO antagonist that produced 50% inhibition of the metabolite conversion.
[…] IC50 values, calculated as theconcentration of test compound required to cause 50% inhibition of LTB4 formation, were also determined for some representative examples. […] These compounds, in general, correspond to compounds bearing the more lipophilic quinone fragments. […] See S. Ohkawa et al., “Dual Inhibition of Thromboxane A2 Synthetase and 5-Lipoxygenase with Scavenging Activity of Active Oxygen Species. Synthesis of a Novel Series of (3-Pyridylmethyl)benzoquinone Derivatives,” J. Med. Chem., vol. 34, pp. 267-276 (1991).

[3] = system: arachidonic acid-induced ear inflammation in mice; test: Arachidonic acid-induced ear inflammation in mice (AAE test); assay type: in vivo; details: mice, topical
[4] = target: T2, 5-LO (Rattus norvegicus, UniProt P12527); test: 5-LO inhibition by radioimmunoassay (RIA) in rat peritoneal PMNL; details: inhibitors at 'AM final concentration' [sic], mean ± SD
T2 sequence (P12527 1-673): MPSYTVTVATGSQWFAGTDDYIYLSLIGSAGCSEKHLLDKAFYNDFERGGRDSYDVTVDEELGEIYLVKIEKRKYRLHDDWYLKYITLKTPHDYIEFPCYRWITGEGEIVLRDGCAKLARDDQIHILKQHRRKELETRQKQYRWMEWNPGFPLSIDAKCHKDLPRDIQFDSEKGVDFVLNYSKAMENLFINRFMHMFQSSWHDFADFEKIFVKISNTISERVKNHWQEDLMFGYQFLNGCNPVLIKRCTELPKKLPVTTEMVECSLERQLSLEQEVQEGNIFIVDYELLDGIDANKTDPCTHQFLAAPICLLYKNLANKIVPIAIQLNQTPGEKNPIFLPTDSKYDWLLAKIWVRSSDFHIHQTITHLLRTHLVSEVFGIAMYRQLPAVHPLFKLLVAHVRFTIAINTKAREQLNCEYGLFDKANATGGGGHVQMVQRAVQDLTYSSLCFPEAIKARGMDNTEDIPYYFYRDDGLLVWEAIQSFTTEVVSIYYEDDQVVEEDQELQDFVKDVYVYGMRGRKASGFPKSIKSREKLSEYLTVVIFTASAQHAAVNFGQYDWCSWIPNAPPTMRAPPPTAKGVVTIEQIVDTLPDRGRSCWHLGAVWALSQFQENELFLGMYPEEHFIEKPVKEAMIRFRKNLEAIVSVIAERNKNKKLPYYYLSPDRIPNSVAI
Text: as §1

[5] = Mus musculus, 250 μg/ear, read-out: % inhibition of AA-induced ear inflammation

COX-1, sequence (P23219 24-599): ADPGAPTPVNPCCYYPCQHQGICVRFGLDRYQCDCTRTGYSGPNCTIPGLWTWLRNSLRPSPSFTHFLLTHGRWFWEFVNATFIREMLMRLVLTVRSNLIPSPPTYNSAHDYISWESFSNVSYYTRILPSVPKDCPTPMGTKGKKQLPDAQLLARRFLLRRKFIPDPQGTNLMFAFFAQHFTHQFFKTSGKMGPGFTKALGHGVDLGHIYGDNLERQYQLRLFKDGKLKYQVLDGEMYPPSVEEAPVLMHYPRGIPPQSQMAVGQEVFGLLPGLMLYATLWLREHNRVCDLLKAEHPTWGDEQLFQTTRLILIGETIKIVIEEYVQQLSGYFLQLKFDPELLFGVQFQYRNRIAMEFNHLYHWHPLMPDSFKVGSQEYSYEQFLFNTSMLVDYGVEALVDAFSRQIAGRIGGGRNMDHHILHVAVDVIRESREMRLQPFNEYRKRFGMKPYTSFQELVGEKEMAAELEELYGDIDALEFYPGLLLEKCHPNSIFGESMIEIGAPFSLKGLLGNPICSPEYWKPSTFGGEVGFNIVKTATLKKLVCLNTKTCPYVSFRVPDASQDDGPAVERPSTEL

CC(=O)Oc1ccccc1C(=O)O [Aspirin, reference compound]
inhibition at 500 µM [1]: 83.1 ± 2%

O=C1C=CC(=O)C(Nc2ccccn2)=C1 [Compound 4a]
melting point: 102 to 104 °C

CC1=CC(=O)C=C(Nc2ccccn2)C1=O [Compound 4b, 2-Methyl-6-(pyridin-2-ylamino)-[1,4]benzoquinone]
inhibition at 1 µM [2]: 86 ± 2.3% | melting point: 162 to 164 °C

CC1=C(C)C(=O)C(Nc2ccccn2)=CC1=O [Compound 4d, 2,3-Dimethyl-5-(pyridin-2-ylamino)-[1,4]benzoquinone]
inhibition at 1 µM [2]: 88 ± 5.2% | change in vivo at 50 µg/ear ([3]; Mus musculus, 50 μg/ear, read-out: % inhibition of AA-induced ear inflammation): -18.3 ± 3.3% | change in vivo at 100 µg/ear ([3]; Mus musculus, 100 μg/ear, read-out: % inhibition of AA-induced ear inflammation): -27.8 ± 3.6% | change in vivo at 250 µg/ear [3, 5]: -35.9 ± 7.4%

O=C1C=C(Nc2ccccn2)C(=O)C(c2ccccc2)=C1 [Compound 4f, 2-Phenyl-6-(pyridin-2-ylamino)-[1,4]benzoquinone]
inhibition at 1 µM [2]: 64 ± 4.3% | melting point: 165 to 167 °C

COC1=C(OC)C(=O)C(Nc2ccc(Cl)cn2)=C(C)C1=O [Compound 4g, 2-(5-Chloropyridin-2-ylamino)-5,6-dimethoxy-3-methyl-[1,4]benzoquinone]
melting point: 106 to 108 °C

COC1=C(OC)C(=O)C(Nc2ccc(Br)cn2)=C(C)C1=O [Compound 4h, 2-(5-Bromopyridin-2-ylamino)-5,6-dimethoxy-3-methyl-[1,4]benzoquinone]
melting point: 99 to 100 °C

CC1=C(Nc2ccccn2)C(=O)c2ccccc2C1=O [Compound 4j, 2-Methyl-3-(pyridin-2-ylamino)-[1,4]naphthoquinone]
melting point: 130 to 132 °C

O=C1C=C(Nc2ccc(Cl)cn2)C(=O)c2ccccc21 [Compound 4k, 2-(5-Choropyridin-2-ylamino)-[1,4]naphthoquinone]
inhibition at 1 µM [2]: 24 ± 3.7% | in vitro 5-LO activity in words [2]: significant inhibition of 5-LO | melting point: 251 to 252 °C

O=C1C=C(Nc2ccc(I)cn2)C(=O)c2ccccc21 [Compound 4m, 2-(5-Iodopyridin-2-ylamino)-[1,4]naphthoquinone]
melting point: 245 to 246 °C

O=C1C=C(Nc2ncc(Cl)cc2Cl)C(=O)c2ccccc21 [Compound 4n, 2-(3,5-Dichloropyridin-2-ylamino)-[1,4]naphthoquinone]
melting point: 249 to 250 °C

CC1=CC(=O)C=C(Nc2ncccn2)C1=O [Compound 4o, 2-Methyl-6-(pyrimidin-2-ylamino)-[l 4]benzoquinone]
inhibition at 1 µM [2]: 56 ± 3.1% | melting point: 167 to 169 °C

COC1=C(OC)C(=O)C(Nc2ncccn2)=C(C)C1=O [Compound 4q, 2,3-Dimethoxy-5-methyl-6-(pyrimidin-2-ylamino)-[1.4]benzoquinone]
melting point: 132 to 134 °C

O=C1C=C(Nc2nccc(-c3ccccc3)n2)C(=O)c2ccccc21 [Compound 4u, 2-(4-Phenylpyrimidin-2-ylamino)-[1,4]naphthoquinone]
melting point: 229 to 230 °C

CC1=CC(=O)C=C(Nc2cnccn2)C1=O [Compound 4v, 2-Methyl-6-(pyrazin-2-ylamino)-[1,4]benzoquinone]
in vitro 5-LO activity in words [2]: inactive

CC1=CC(=O)C(Nc2cnccn2)=CC1=O [Compound 4x, 2-Methyl-5-(pyrazin-2-ylamino)-[1,4]benzoquinone]
in vitro 5-LO activity in words [2]: inactive | melting point: 134 to 136 °C

O=C1C=C(Nc2cnccn2)C(=O)c2ccccc21 [Compound 4y, 2-(Pyrazin-2-ylamino)-[i, 4]naphthoquinone]
activation (LTB4 formation) ([2]; at 0.1 μM, PMNL): ^d180% activation at 0.1 μM. | in vitro 5-LO activity in words [2]: agonist activity | melting point: 245 to 247 °C

COc1ccc2c(c1)c(CC(=O)O)c(C)n2C(=O)c1ccc(Cl)cc1 [Indometacin, reference compound]
change in vivo at 250 µg/ear [3, 5]: -26.6 ± 7.3%

CC(C)c1ccc2c(c1)c(SC(C)(C)C)c(CC(C)(C)C(=O)O)n2Cc1ccc(Cl)cc1 [MK-886, 3-[3-t-Butylthio-l-(p-chlorobenzyl)-5-isopropylindol-2-yl]-2,2-dimethylpropionic acid, reference compound]
% inhibition of AA-induced ear inflammation ([3]; 250 μg/ear): −25.7 ± 8.1%

CC(Cc1ccc(O)c(O)c1)C(C)Cc1ccc(O)c(O)c1 (stereo not shown) [NDGA, reference compound]
5-LO percent inhibition [4]: 92.0 ± 4.2%
